Measured values from ChEMBL document CHEMBL3217457, “Carbazolepyrrolo[2,1-c][1,4]benzodiazepine conjugates: design, synthesis, and biological evaluation” (Medchemcomm, 2011).
Active and inactive are the calls of the source. The rule behind the calls is not given here.

Columns and labels:
SiHa = experiment: Growth inhibition of human SiHa cells; type: functional
COLO 205 = experiment: Growth inhibition of human COLO205 cells; type: functional
PC-3 = experiment: Growth inhibition of human PC3 cells; type: functional
HOP-62 = experiment: Growth inhibition of human HOP62 cells; type: functional
MCF7 [1] = experiment: Growth inhibition of human MCF7 cells; type: functional
[2] = Growth inhibition of human Gurav cells; type: functional
A2780 = experiment: Growth inhibition of human A2780 cells; type: functional
KB = experiment: Growth inhibition of human KB cells; type: functional
[3] = Growth inhibition of human SF539 cells; type: functional; settings: SF-539
[4] = Growth inhibition of human LOXIMVI cells; type: functional; settings: LOX IMVI
SF-268 = experiment: Growth inhibition of human SF268 cells; type: functional
[5] = Growth inhibition of human OVCAR4 cells; type: functional; settings: OVCAR-4
MCF7 [6] = experiment: Cell cycle arrest in human MCF7 cells assessed as accumulation at G2/M phase at 4 uM after 24 hrs by propidium iodide staining based flow cytometry (reference value: 24.95%); type: functional
SK-OV-3 = experiment: Growth inhibition of human SKOV3 cells; type: functional
Malme-3M = experiment: Growth inhibition of human MALME-3M cells; type: functional
[7] = Growth inhibition of human OVCAR3 cells; type: functional; settings: OVCAR-3
[8] = Growth inhibition of human UACC62 cells; type: functional; settings: UACC-62
SK-MEL-28 = experiment: Growth inhibition of human SK-MEL-28 cells; type: functional
U-251 = experiment: Growth inhibition of human U251 cells; type: functional
[9] = Growth inhibition of human HCT15 cells; type: functional; settings: HCT-15
NCI-H23 = experiment: Growth inhibition of human NCI-H23 cells; type: functional
HT-29 = experiment: Growth inhibition of human HT-29 cells; type: functional
Calf thymus DNA = experiment: Binding affinity to calf thymus DNA assessed as change in melting temperature at compound to DNA ratio of 1:5 after 18 hrs by thermal denaturation analysis; type: nucleic-acid assay; settings: Bos taurus
IGROV-1 = experiment: Growth inhibition of human IGROV1 cells; type: functional
[10] = Growth inhibition of human HCC2998 cells; type: functional; settings: HCC 2998
HCT-116 = experiment: Growth inhibition of human HCT116 cells; type: functional
MDA-MB-468 = experiment: Growth inhibition of human MDA-MB-468 cells; type: functional
NCI-H226 = experiment: Growth inhibition of human NCI-H226 cells; type: functional
MCF7 [11] = experiment: Cell cycle arrest in human MCF7 cells assessed as accumulation at G0 phase at 4 uM after 24 hrs by propidium iodide staining based flow cytometry (reference value: 2.77%); type: functional
MCF7 [12] = experiment: Cell cycle arrest in human MCF7 cells assessed as accumulation at S phase at 4 uM after 24 hrs by propidium iodide staining based flow cytometry (reference value: 14.30%); type: functional
NCI-H460 = experiment: Growth inhibition of human NCI-H460 cells; type: functional
MCF7 [13] = experiment: Cytotoxicity against human MCF7 cells by ATP-dependent cell viability assay; type: functional, cell-based
MCF7 [14] = experiment: Cytotoxicity against human MCF7 cells assessed as decrease in cell viability at 4 uM after 24 hrs by MTT assay; type: functional, cell-based
A498 = experiment: Growth inhibition of human A498 cells; type: functional
MCF7 [15] = experiment: Cytotoxicity against human MCF7 cells assessed as decrease in cell viability at 2 to 16 uM after 6 to 48 hrs by MTT assay; type: functional, cell-based
T47D = experiment: Growth inhibition of human T47D cells; type: functional
ZR-75-1 = experiment: Growth inhibition of human ZR-75-1 cells; type: functional
MCF7 [16] = experiment: Cell cycle arrest in human MCF7 cells assessed as accumulation at G0/G1 phase at 4 uM after 24 hrs by propidium iodide staining based flow cytometry (reference value: 60.75%); type: functional
M14 = experiment: Growth inhibition of human M14 cells; type: functional
[17] = Growth inhibition of human RXF393 cells; type: functional; settings: RXF 393
786-0 = experiment: Growth inhibition of human 786-0 cells; type: functional
[18] = Growth inhibition of human EKVX cells; type: functional
MCF7 [19] = experiment: Antiproliferative activity against human MCF7 cells assessed as cell proliferation at 4 uM after 24 hrs by BrdU incorporation assay (reference value: 100%); type: functional; settings: MCF7, 24 h, read-out: Activity
[20] = Growth inhibition of human Hs 578T cells; type: functional
SN12C = experiment: Growth inhibition of human SN12C cells; type: functional
MCF7 [21] = experiment: Cell cycle arrest in human MCF7 cells assessed as accumulation at G1 phase at 4 uM after 24 hrs by propidium iodide staining based flow cytometry (reference value: 57.98%); type: functional
DU-145 = experiment: Growth inhibition of human DU145 cells; type: functional
SK-MEL-2 = experiment: Growth inhibition of human SK-MEL-2 cells; type: functional
TK-10 = experiment: Growth inhibition of human TK10 cells; type: functional
SK-MEL-5 = experiment: Growth inhibition of human SK-MEL-5 cells; type: functional
[22] = Growth inhibition of human UO31 cells; type: functional; settings: UO-31
CCRF-CEM = experiment: Growth inhibition of human CCRF-CEM cells; type: functional
NCI-H322M = experiment: Growth inhibition of human NCI-H322M cells; type: functional
[23] = Growth inhibition of human OVCAR5 cells; type: functional; settings: OVCAR-5
SR = experiment: Growth inhibition of human SR cells; type: functional
ACHN = experiment: Growth inhibition of human ACHN cells; type: functional
SW-620 = experiment: Growth inhibition of human SW620 cells; type: functional
A549 = experiment: Growth inhibition of human A549 cells; type: functional
SNB-75 = experiment: Growth inhibition of human SNB75 cells; type: functional
NCI-H522 = experiment: Growth inhibition of human NCI-H522 cells; type: functional
[24] = Growth inhibition of human UACC257 cells; type: functional; settings: UACC-257
[25] = Growth inhibition of human BT549 cells; type: functional; settings: BT-549
CAKI-1 = experiment: Growth inhibition of human CAKI-1 cells; type: functional
[26] = Growth inhibition of human MDA-MB cells; type: functional
MDA-MB-435 = experiment: Growth inhibition of human MDA-MB-435 cells; type: functional
HL-60(TB) = experiment: Growth inhibition of human HL-60(TB) cells; type: functional
KM12 = experiment: Growth inhibition of human KM12 cells; type: functional
SNB-19 = experiment: Growth inhibition of human SNB19 cells; type: functional
[27] = Growth inhibition of human HOP92 cells; type: functional; settings: HOP-92
[28] = Growth inhibition of human MOLT4 cells; type: functional; settings: MOLT-4

COc1cccc2c1C(=O)c1c(O)c3c(c(O)c1C2=O)C[C@@](O)(C(=O)CO)C[C@@H]3O[C@H]1C[C@H](N)[C@H](O)[C@H](C)O1 [DOXORUBICIN]
GI50 (SiHa): 170 nM | GI50 (COLO 205): 140 nM | GI50 (PC-3): 1830 nM | GI50 (HOP-62): 140 nM | GI50 (MCF7 [1]): 170 nM | GI50 [2]: 160 nM | GI50 (A2780): 160 nM | GI50 (KB): 170 nM

COc1cc2c(cc1OCCCN1CCN(CCCn3c4ccccc4c4ccccc43)CC1)N=C[C@@H]1CCCN1C2=O
GI50 [3]: 120 nM | GI50 [4]: 30 nM | GI50 (SF-268): 50 nM | GI50 [5]: 100 nM | Activity (MCF7 [6]): 3.87% | GI50 (SK-OV-3): 290 nM | GI50 (Malme-3M): 150 nM | GI50 [7]: 69 nM | GI50 [8]: 150 nM | GI50 (SK-MEL-28): 60 nM | GI50 (SiHa): 140 nM | GI50 (U-251): 30 nM | GI50 [9]: 280 nM | GI50 (NCI-H23): 260 nM | GI50 (HT-29): 50 nM | ΔTm (Calf thymus DNA): 7 °C | GI50 (COLO 205): 70 nM | GI50 (IGROV-1): < 10 nM | GI50 [10]: 130 nM | GI50 (HCT-116): 60 nM | GI50 (MDA-MB-468): 110 nM | GI50 (NCI-H226): 130 nM | Activity (MCF7 [11]): 17.13% | Activity (MCF7 [12]): 9.53% | GI50 (NCI-H460): 250 nM | inhibition (MCF7 [13]): Active | GI50 (PC-3): 30 nM | GI50 (HOP-62): 80 nM | inhibition (MCF7 [14]): Active | GI50 (A498): 170 nM | inhibition (MCF7 [15]): Active | GI50 (T47D): 170 nM | GI50 (ZR-75-1): 130 nM | Activity (MCF7 [16]): 86.6% | GI50 (M14): 150 nM | GI50 (MCF7 [1]): 40 nM | GI50 [17]: 220 nM | GI50 (786-0): 190 nM | GI50 [18]: 140 nM | growth at 4 µM (MCF7 [19]): 35.2% | GI50 [20]: 160 nM | GI50 (SN12C): 270 nM | Activity (MCF7 [21]): 69.47% | GI50 (DU-145): 40 nM | GI50 (SK-MEL-2): 190 nM | GI50 (TK-10): 120 nM | GI50 (SK-MEL-5): 230 nM | GI50 [22]: 120 nM | GI50 (CCRF-CEM): 20 nM | GI50 (NCI-H322M): 250 nM | GI50 [23]: 30 nM | GI50 (SR): 30 nM | GI50 [2]: 120 nM | GI50 (ACHN): 250 nM | GI50 (SW-620): 40 nM | GI50 (A549): 140 nM | GI50 (SNB-75): 150 nM | GI50 (NCI-H522): < 10 nM | GI50 [24]: 150 nM | GI50 [25]: 130 nM | GI50 (CAKI-1): 120 nM | GI50 [26]: 950 nM | GI50 (A2780): 120 nM | GI50 (KB): 130 nM | GI50 (MDA-MB-435): 10 nM | GI50 (HL-60(TB)): 30 nM | GI50 (KM12): 150 nM | GI50 (SNB-19): 210 nM | GI50 [27]: 270 nM | GI50 [28]: 20 nM

COc1cc2c(cc1O)N=C[C@@H]1CCCN1C2=O
Activity (MCF7 [6]): 20.07% | GI50 (SiHa): 170 nM | GI50 (COLO 205): 110 nM | Activity (MCF7 [11]): 3.95% | Activity (MCF7 [12]): 12.2% | GI50 (PC-3): 200 nM | GI50 (HOP-62): 150 nM | GI50 (ZR-75-1): 2340 nM | Activity (MCF7 [16]): 67.74% | GI50 (MCF7 [1]): 170 nM | Activity (MCF7 [21]): 63.79% | GI50 [2]: 170 nM | GI50 (A549): 160 nM | GI50 (A2780): 140 nM | GI50 (KB): 170 nM

COc1ccc(-c2ccc3c(c2)c2cc(-c4ccc(OC)cc4)ccc2n3CCCOc2cc3c(cc2OC)C(=O)N2CCC[C@H]2C=N3)cc1
GI50 (SiHa): 170 nM | ΔTm (Calf thymus DNA): 4.8 °C | GI50 (COLO 205): 170 nM | GI50 (PC-3): 160 nM | GI50 (HOP-62): 110 nM | GI50 (MCF7 [1]): 130 nM | GI50 (A549): 180 nM | GI50 (A2780): 150 nM | GI50 (KB): 180 nM

COc1cc2c(cc1OCCCCn1c3ccccc3c3ccccc31)N=C[C@@H]1CCCN1C2=O
GI50 (SiHa): 1700 nM | ΔTm (Calf thymus DNA): 3.5 °C | GI50 (COLO 205): 1700 nM | GI50 (HOP-62): 1930 nM | GI50 (ZR-75-1): 1810 nM | GI50 (MCF7 [1]): 2210 nM | GI50 [2]: 1600 nM | GI50 (A549): 1920 nM | GI50 (A2780): 1570 nM | GI50 (KB): 1870 nM

COc1ccc(-c2ccc3c(c2)c2cc(-c4ccc(OC)cc4)ccc2n3CCCCOc2cc3c(cc2OC)C(=O)N2CCC[C@H]2C=N3)cc1
Activity (MCF7 [6]): 21.88% | GI50 (SiHa): 170 nM | ΔTm (Calf thymus DNA): 4.3 °C | GI50 (COLO 205): 190 nM | Activity (MCF7 [11]): 4.4% | Activity (MCF7 [12]): 11.12% | GI50 (PC-3): 160 nM | GI50 (HOP-62): 140 nM | Activity (MCF7 [16]): 67% | GI50 (MCF7 [1]): 150 nM | Activity (MCF7 [21]): 62.6% | GI50 (A549): 190 nM | GI50 (A2780): 160 nM | GI50 (KB): 190 nM

COc1cc2c(cc1OCCCCCCn1c3ccccc3c3ccccc31)N=C[C@@H]1CCCN1C2=O
GI50 (SiHa): 1580 nM | ΔTm (Calf thymus DNA): 4.7 °C | GI50 (COLO 205): 1620 nM | GI50 (HOP-62): 1580 nM | GI50 (ZR-75-1): 2140 nM | GI50 (MCF7 [1]): 1650 nM | GI50 [2]: 1710 nM | GI50 (A549): 1500 nM | GI50 (A2780): 1700 nM | GI50 (KB): 1950 nM
